Assays:
Histamin-H1 = assay: Protection against lethal histamine dihydrochloride dose (histamine H1 antagonism) in guinea pigs; assay type: in vivo, Meerschweinchen; details: 10 per dose, test substance orally 1 hour before lethal Histamin-dihydrochlorid (10 mg/kg s.c.), dose protecting 50% of animals from death, probit method
Text: Ueberraschenderweise hat es sich gezeigt, dass die erfindungsgemässen Produkte die H1-Wirkung des Histamins zu hemmen vermögen. Die Verbindungen der allgemeinen Formel I und ihre pharmazeutisch annehmbaren Säureadditionssalze sind somit wertvolle Histamin-H antagonistische Wirkstoffe und eignen sich insbesondere zur Bekämpfung bzw. Verhütung von allergischen Reaktionen, wie beispielsweise Urtikaria, Heuschnupfen, Anaphylaxie und Arzneimittelüberempfindlichkeit. Diese Histamin-H1 antagonistischen Eigenschaften können wie nachfolgend beschrieben an männlichen und weiblichen, 240 bis 300 g schweren Meerschweinchen (SPF, Füllinsdorf) ermittelt werden:
Den Versuchstieren (10 pro Dosis) wird während 24 Stunden vor Versuchsbeginn das Futter entzogen, wobei Wasser ad libitum erhältlich ist. Eine Stunde nach oraler Verabreichung einer Lösung der Testsubstanz (10 ml/kg) erhalten die Versuchstiere eine letale Dosis von Histamin-dihydrochlorid (10 mg/kg s.c.). Ungeschützte Tiere, d.h. nur mit Histamin-dihydrochlorid behandelte Tiere, sterben innerhalb einer Stunde. Nach Auszählen der überlebenden, geschützten'Tiere wird die ED50 nach der Probitmethode ermittelt. Die ED50 ist diejenige Dosis, die notwendig ist, um 50% der mit der Testsubstanz behandelten Tiere vor dem Tod zu schützen.

[1] = Acute toxicity after single oral administration to mice; details: mouse, in vivo, read-out: DL50 (the source's name)
Text: Die nachfolgende Tabelle enthält für zwei repräsentative Vertreter der durch die allgemeine Formel I umfassten Verbindungsklasse die ED50-Werte, sowie Angaben über deren akute Toxizität bei einmaliger oraler Verabreichung an Mäusen (DL50 in m^g/k^g).

Structure (SMILES)	ED50 (Histamin-H1)	LD50 [1]
Cc1cccc2c1CCC1=C(CC=CC1)C2CCCN(C)C (stereo not shown) [A, 4,5,10,11-Tetrahydro-N,N,9-trimethyl-1H-dibenzo[a,d]-cyclohepten-5-propylamin]	0,4 mg/kg p.o.	600 to 1200 mg/kg
Cc1cccc2c1CCC1=C(CCCC1)C2CCCN(C)C (stereo not shown) [B, 2,3,4,5,10,11-Hexahydro-N,N,9-trimethyl-1H-dibenzo-[a,d]cyclohepten-5-propylamin]	0,9 mg/kg p.o.	250 to 500 mg/kg

— EP0056616A2, “Cycloheptene derivatives, process for their preparation, and pharmaceuticals containing them” (F. HOFFMANN-LA ROCHE & CO. Aktiengesellschaft, priority 1981, dated 1982)
